Common to all, as to experiment: NCI anticancer screen, dose series, 48 h
The subject of experiment [1] is COLO 205 colon.
Experiment [2] relates to LOX IMVI melanoma.
The subject of experiment [3] is EKVX NSCLC.
For experiment [4], the system named is MDA-MB-435.
The test system of experiment [5] is SR leukemia.
Experiment [6] deals with SNB-19 CNS.
Experiment [7] relates to KM12 colon.
The subject of experiment [8] is SF-268 CNS.
In experiment [9] the test system is MDA-MB-231 breast.
The subject of experiment [10] is UO-31 renal.

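Assay format: 96-well plates, 48-hour exposure. Here, GI50 denotes the concentration required for 50% inhibition of growth. TGI denotes the concentration required for complete inhibition of growth.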 A value given as a limit tells only on which side of the number the result lay.

Regarding `C/C(=C1/N=C(c2ccccc2)OC1=O)c1cccs1`, the TGI in experiment [1], in experiment [2], in experiment [3], in experiment [4], in experiment [5] and in experiment [6] was above 100 µM each time. In addition, the TGI in experiment [7], in experiment [8] and in experiment [9] was above 100 µM throughout.

As to `COC(=O)[C@@H](C)C[C@H](Cc1ccccc1)NC(=O)c1cccc([C@@H](C[C@H](C(C)C)N(C)C(=O)[C@@H](NC(=O)[C@H]2CCCCN2C)C(C)C)OC(C)=O)n1`, the GI50 in experiment [2] is 0.00495 µM; in [3], 0.00497 µM; in experiment [4], below 0.00167 µM; in experiment [5], below 0.00167 µM; in experiment [10] it was 0.0127 µM; in experiment [6], below 0.00167 µM. Also, the GI50 in [7] is below 0.00167 µM; in experiment [8], 0.0164 µM; in experiment [9], 0.00236 µM. Further, the TGI in experiment [2] is above 16.7 µM; in experiment [3], above 16.7 µM; in [4] it was 0.0881 µM; in experiment [5], above 16.7 µM; in [10], above 16.7 µM; in experiment [6], above 16.7 µM. For the same molecule, the results for the TGI in experiment [7], in experiment [8] and in experiment [9] were above 16.7 µM, above 16.7 µM and 3.21 µM, respectively.

Regarding `Cc1cccc(NC(=O)c2sc3nc4c(cc3c2N)CCC4)c1C`, the GI50 in experiment [1] is 0.361 µM; in experiment [2], 0.643 µM; in experiment [4] it was 0.0519 µM; in experiment [5], 0.191 µM; in experiment [10], 0.615 µM; in [6] it was 0.532 µM. For the same molecule, the GI50 in experiment [7] was 0.407 µM; in [8] it was 0.722 µM; in experiment [9], 0.594 µM. Also, the TGI in [1] is 1.97 µM; in experiment [2], above 100 µM; in [4] it was 0.284 µM; in experiment [5] it was 10.2 µM; in [10] it was above 100 µM; in [6], 29.1 µM. The TGI in experiment [7] is 41 µM; in experiment [8] it was 26 µM; in [9] it was 29.3 µM.

`O=C(/C=C\c1ccc(Cl)c(Cl)c1)c1ccccc1`: the GI50 in experiment [1] was 13.6 µM; in [2], 2.07 µM; in experiment [4] it was 4.48 µM; in experiment [5], 2.75 µM; in [10], 4.09 µM; in experiment [6], 10.6 µM. Moreover, the GI50 in experiment [7] was 3.07 µM; in experiment [8], 11.1 µM; in [9], 12.3 µM. Further, the TGI is 29.7 µM in [1]; 4.48 µM in experiment [2]; 16.7 µM in experiment [4]; 9.22 µM in experiment [5]; 16.7 µM in experiment [10]; 23.6 µM in experiment [6]. The TGI in experiment [7] worked out at 8.88 µM; in experiment [8], 24.7 µM; in experiment [9] it was 25.2 µM.

Regarding `Cn1cc(C2=C(c3cn(CCCSC(=N)N)c4ccccc34)C(=O)NC2=O)c2ccccc21`, the GI50 in experiment [1] is 0.668 µM; in experiment [2], 1.91 µM; in [4], 1.81 µM; in experiment [5] it was 0.585 µM; in experiment [10], 5.59 µM; in [6], 1.4 µM. The GI50 is 2.07 µM in experiment [7], 1.76 µM in [8] and 2.11 µM in experiment [9]. Besides, the TGI in experiment [1] amounted to 1.92 µM; in experiment [2], 5.45 µM; in experiment [4] it was 5.59 µM; in experiment [5], 1.69 µM; in [10] it was 16.2 µM; in [6] it was 8.99 µM. Besides, the TGI in [7] turned out to be 5.97 µM; in [8], 7.52 µM; in experiment [9], 9.52 µM.

With `O=C1/C(=C/c2ccc([N+](=O)[O-])s2)Oc2ccc(Cl)cc21`, the GI50 was 0.527 µM in [1]; 0.239 µM in experiment [2]; 0.457 µM in experiment [4]; 0.204 µM in [5]; 0.152 µM in [10]; 0.512 µM in [6]. Also, the GI50 in experiment [7] was 0.24 µM; in experiment [8] it was 0.405 µM; in experiment [9], 0.231 µM. Further, the TGI in [1] was 1.36 µM; in [2] it was 0.598 µM; in [4], 1.55 µM; in [5], 0.73 µM; in [10], 0.295 µM; in experiment [6], 1.55 µM. The figures for the TGI in [7], in [8] and in [9] were 0.593 µM, 1.53 µM and 0.586 µM, respectively.

In the case of `N#Cc1c(-c2ccc(Cl)cc2)n([O-])c2ccccc2[n+]1=O`, the GI50 was 23 µM in experiment [1]; 5.72 µM in experiment [2]; 5.63 µM in experiment [3]; 13.7 µM in experiment [4]; 13.7 µM in experiment [10]; 20.6 µM in experiment [6]. The GI50 in experiment [7] is 14.3 µM; in [8], 14.6 µM; in [9], 6.95 µM. Also, the TGI in experiment [1] is 54.4 µM; in [2], 20.3 µM; in [3] it was 20.5 µM; in experiment [4], 27 µM; in [10], 29.7 µM; in [6] it was 48.6 µM. Moreover, the results for the TGI in experiment [7], in [8] and in experiment [9] were 28.7 µM, 33.8 µM and 24.2 µM, respectively.

With `Oc1ccc(-c2nc(-c3ccc4oc5ccc(-c6[nH]c(-c7ccc(O)cc7)nc6-c6ccccc6)cc5c4c3)c(-c3ccccc3)[nH]2)cc1`, the GI50 in experiment [1] is 3.09 µM; in [4], 2.85 µM; in experiment [5], 1.98 µM; in [10], 6.96 µM; in experiment [6], 19.1 µM; in [7] it was 2.88 µM. The results for the GI50 in experiment [8] and in experiment [9] were 5.57 µM and 2.57 µM, respectively. For the same molecule, the TGI in [1] is 8.18 µM; in [4], above 100 µM; in [5], 5.17 µM; in experiment [10], 22.8 µM; in [6], 83.5 µM; in [7], 7.92 µM. For the same molecule, the values for the TGI in experiment [8] and in [9] were 65.3 µM and 7.46 µM, respectively.
